Experimental findings from PubChem BioAssay (NCI) are described below.

Among the test systems are SW-620 colon; MALME-3M melanoma; SF-295 CNS; 786-0 renal; KM12 colon; OVCAR-4 ovarian; TK-10 renal; HL-60(TB) leukemia; M14 melanoma; A549 NSCLC; A498 renal; HCC-2998 colon; EKVX NSCLC.
Experiment in all cases: growth of human tumour cells (NCI), 48 h

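Compound exposure: 48 hours, 5 concentrations, 96-well plates. TGI denotes the concentration required for complete inhibition of growth.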

Consider `CN(C)CCSC(=Nc1ccccc1)n1cccc1`, for which the TGI in the test with SW-620 colon, in the test with MALME-3M melanoma, with SF-295 CNS, in the test on 786-0 renal, with KM12 colon and in the test on OVCAR-4 ovarian was over 100 µM each time. Also, the TGI with TK-10 renal, with HL-60(TB) leukemia, in the test on M14 melanoma and in the test on A549 NSCLC was over 100 µM each time.

With `NC(=S)N/N=C(/CCN1CCCC1)CC(C1=C(O)C2=CCCCC2OC1=O)c1ccccc1` (stereo not given), the TGI in the test with SW-620 colon, in the test with MALME-3M melanoma, with SF-295 CNS, in the test on A498 renal, with 786-0 renal and with HCC-2998 colon was over 100 µM throughout. For the same compound, the TGI in the test with EKVX NSCLC, in the test on KM12 colon, in the test on OVCAR-4 ovarian, with TK-10 renal, with HL-60(TB) leukemia and in the test on M14 melanoma was over 100 µM throughout. Besides, the TGI with A549 NSCLC was over 100 µM.

Regarding `CCOC(=O)/C(=C/c1ccccc1)N(CC)CC`, the TGI in the test on SW-620 colon, with MALME-3M melanoma, in the test with SF-295 CNS, in the test with A498 renal, with 786-0 renal and in the test with HCC-2998 colon was over 100 µM throughout. The TGI with EKVX NSCLC, with KM12 colon, with OVCAR-4 ovarian, in the test with TK-10 renal, with HL-60(TB) leukemia and with M14 melanoma was over 100 µM throughout. In the test with A549 NSCLC, this compound displayed a TGI of over 100 µM.

With `[N-]=[N+]=Nc1nnc(CCCCc2nnc(N=[N+]=[N-])o2)o1`, the TGI in the test on SW-620 colon, with MALME-3M melanoma, with SF-295 CNS, with A498 renal, in the test on 786-0 renal and with HCC-2998 colon was over 100 µM in each case. For the same compound, the TGI with EKVX NSCLC, in the test with KM12 colon, with OVCAR-4 ovarian, with TK-10 renal, with M14 melanoma and in the test with A549 NSCLC was over 100 µM throughout.

Turning to `CC(=O)NC(CCCCN(Cc1ccccc1)C(=O)N(C)N=O)C(=O)NCc1ccccc1` (stereo not given), the TGI in the test with SW-620 colon, in the test on MALME-3M melanoma, with SF-295 CNS, with A498 renal, in the test with 786-0 renal and in the test on HCC-2998 colon was over 100 µM throughout. The TGI in the test on EKVX NSCLC, with KM12 colon, with OVCAR-4 ovarian, with TK-10 renal, in the test with M14 melanoma and in the test with A549 NSCLC was over 100 µM throughout.

`N#CC(C(=S)Nc1ccccc1)=C1Nc2ccccc2N1`: the TGI in the test with SW-620 colon, in the test on MALME-3M melanoma, in the test on A498 renal, in the test with 786-0 renal, in the test with HCC-2998 colon and with EKVX NSCLC was over 10 µM throughout. Further, the TGI in the test on KM12 colon, with OVCAR-4 ovarian, in the test with TK-10 renal, in the test on HL-60(TB) leukemia, in the test on M14 melanoma and in the test with A549 NSCLC was over 10 µM throughout.

As to `COc1ccc([C@H]2[C@@H]3CCc4ccccc4C3=NN2C(N)=S)cc1OC`, the TGI in the test on SW-620 colon, in the test on MALME-3M melanoma, in the test on A498 renal, in the test on 786-0 renal, in the test on HCC-2998 colon and in the test on EKVX NSCLC was over 100 µM throughout. Besides, the TGI with KM12 colon is over 100 µM; with OVCAR-4 ovarian it was over 100 µM; in the test on TK-10 renal, over 100 µM; with HL-60(TB) leukemia it was 54.8 µM; in the test on M14 melanoma it was over 100 µM; with A549 NSCLC it was over 100 µM.

As to `COc1cc(CO)cc2c1[nH]c1ccccc12`, the TGI in the test on SW-620 colon, with MALME-3M melanoma, in the test on 786-0 renal, in the test with HCC-2998 colon, in the test with KM12 colon and with OVCAR-4 ovarian was over 25 µM throughout. For the same compound, the TGI in the test on TK-10 renal, in the test with HL-60(TB) leukemia, in the test on M14 melanoma and with A549 NSCLC was over 25 µM in each case.

Regarding `CC(=O)OCc1ncccc1C(OC(C)=O)OC(C)=O`, the TGI in the test with SW-620 colon, with MALME-3M melanoma, in the test on SF-295 CNS, in the test with A498 renal, with 786-0 renal and in the test with EKVX NSCLC was over 100 µM each time. Besides, the TGI in the test on KM12 colon, in the test with OVCAR-4 ovarian, in the test with TK-10 renal, in the test on HL-60(TB) leukemia, in the test with M14 melanoma and with A549 NSCLC was over 100 µM in each case.

Turning to `CCOc1cc2cnc3c4cc(OC)c(OC)cc4ccc3c2cc1OC`, the TGI in the test with SW-620 colon, in the test on MALME-3M melanoma, in the test with SF-295 CNS, in the test with 786-0 renal, in the test with HCC-2998 colon and in the test on EKVX NSCLC was over 100 µM each time. For the same compound, the TGI in the test on KM12 colon, in the test on OVCAR-4 ovarian, with TK-10 renal, in the test on HL-60(TB) leukemia, in the test on M14 melanoma and with A549 NSCLC was over 100 µM each time.

Turning to `NC(CCSCCF)C(=O)O` (stereo not given), the TGI in the test on SW-620 colon, in the test on A498 renal, in the test with 786-0 renal, in the test on EKVX NSCLC, in the test on KM12 colon and in the test on OVCAR-4 ovarian was over 100 µM in each case. The TGI in the test on TK-10 renal, in the test on HL-60(TB) leukemia, in the test on M14 melanoma and in the test with A549 NSCLC was over 100 µM in each case.

Turning to `CC(C)C1COC(C(C)(C)C2=N[C@@H](C(C)C)CO2)=N1` (stereo not given in full), the TGI with SW-620 colon, in the test with MALME-3M melanoma, in the test on SF-295 CNS, with 786-0 renal, in the test on HCC-2998 colon and with EKVX NSCLC was over 100 µM in each case. The TGI with KM12 colon, in the test on OVCAR-4 ovarian, in the test on TK-10 renal, in the test with HL-60(TB) leukemia, with M14 melanoma and with A549 NSCLC was over 100 µM throughout.
